Experimental data taken from patent US6583150B1, “Pharmaceutical composition based on polyaromatic compounds” (Laboratorie L. Lafon, priority 1999, dated 2003).

Experiments:
T-47D = test: MTT cytotoxicity test, T-47D; assay type: cell-based; conditions: Homo sapiens, T47D, T-47D breast cancer, 72 hours, read-out: concentrations flanking the IC50
Description: (§1) The influence of the compounds of formulae I and II on neoplastic cells was evaluated using the MTT calorimetric test. The principle of the MTT test is based on the mitochondrial reduction by metabolically active live cells of the yellow-colored product MTT (3-(4,5-dimethylthiazol-2-yl)-2,5-diphenyltetrazolium bromide) to a blue-colored product, formazan. The amount of formazan thus obtained is directly proportional to the amount of live cells present in the culture well(s). This amount of formazan is measured by spectrophotometry.
(§2) The cell lines are maintained in monolayer culture at 37° C. in stoppered culture dishes containing 25 MM HEPES MEM (Minimum Essential Medium) base medium. This medium, which is suitable for growing a range of varied diploid or primary mammalian cells, is then supplemented: […]
(§3) with a an amount of 5% FCS (Fetal Calf Serum) decomplemented at 56° C. for 1 hour, with 0.6 mg/mL of L-glutamine, with 200 IU/mL of penicillin, with […] of streptomycin, with 0.1 mg/mL of gentamicin.
The 12 human cancer cell lines used were obtained from the American Type Culture Collection (ATCC, Rockville, Md., USA). These 12 cell lines are: […]

U-87MG = test: MTT cytotoxicity test, U-87MG; assay type: cell-based; conditions: Homo sapiens, U-87MG glioblastoma, 72 hours, read-out: concentrations flanking the IC50
Description: as §1, §2, §3
The 12 human cancer cell lines used were obtained from the American Type Culture Collection (ATCC, Rockville, Md., USA). These 12 cell lines are:
U-373MG (code ATCC: HTB-17) and U-87MG (code ATCC: HTB-14) which are two glioblastomas, Experimentally: 100 μl of a cell suspension containing 200 000 to 50 000 (depending on the cell type used) cells/mL of culture medium are inoculated in flat-bottomed 96-well multi-well plates and are incubated at 37° C. under an atmosphere comprising 5% CO2 and 70% humidity. […] The intensity of the resulting blue coloration, and thus of the conversion of the yellow MTT product into blue formazan by the cells that are still alive at the end of the experiment is quantified by spectrophotometry using a DYNATECH IMMUNOASSAY SYSTEM machine at wavelengths of 570 nm and 630 nm corresponding, respectively, to the maximum absorption wavelengths of formazan and to the background noise. […]

## O=C1c2ncccc2-c2nc3ccccc3c3ccnc1c23 [CRL 8299, Benzo[b]pyrido[4,3,2-de][1,7]phenanthroline-8-one]
T-47D
  IC50: 0.01 µM
U-87MG
  IC50: < 0.0001 µM
